Test results from ChEMBL document CHEMBL1240407, “Prevalence, resistance mechanisms, and susceptibility of multidrug-resistant bloodstream isolates of Pseudomonas aeruginosa” (2010).
Converted amounts (≈) assume the structure as drawn.

Legend:
Assay type in all cases: functional
Pseudomonas aeruginosa [1] = assay: Antimicrobial activity against MexB overexpressing Pseudomonas aeruginosa isolate PA1165 harboring gyrA T83I and parC S87L mutant gene by Etest method
Pseudomonas aeruginosa [2] = assay: Antimicrobial activity against Pseudomonas aeruginosa isolate PA8858 harboring gyrA T83I and parC S87L mutant gene by Etest method
Pseudomonas aeruginosa [3] = assay: Antimicrobial activity against MexB overexpressing Pseudomonas aeruginosa isolate PA1327 harboring gyrA T83I and parC S87L mutant gene by Etest method
Pseudomonas aeruginosa [4] = assay: Antimicrobial activity against Pseudomonas aeruginosa isolate PA8119 harboring gyrA T83I and parC S87L mutant gene by Etest method
Pseudomonas aeruginosa [5] = assay: Antimicrobial activity against MexB overexpressing Pseudomonas aeruginosa isolate PA1328 harboring gyrA T83I and parC S87L mutant gene by Etest method
Pseudomonas aeruginosa [6] = assay: Antimicrobial activity against Pseudomonas aeruginosa isolate PA27853 by Etest method
Pseudomonas aeruginosa [7] = assay: Antimicrobial activity against Pseudomonas aeruginosa isolate PA1166 harboring gyrA T83I and parC S87L mutant gene by Etest method
Pseudomonas aeruginosa [8] = assay: Antimicrobial activity against Pseudomonas aeruginosa isolate PA7461 harboring gyrA T83I and parC S87L mutant gene by Etest method
Pseudomonas aeruginosa [9] = assay: Antimicrobial activity against Pseudomonas aeruginosa isolate PA8721 harboring gyrA T83I and parC S87L mutant gene by Etest method
Pseudomonas aeruginosa [10] = assay: Antimicrobial activity against MexB overexpressing Pseudomonas aeruginosa isolate PA9087 harboring gyrA T83I mutant gene by Etest method
Pseudomonas aeruginosa [11] = assay: Antimicrobial activity against Pseudomonas aeruginosa isolate PA641 parC P105T mutant gene by Etest method
Pseudomonas aeruginosa [12] = assay: Antimicrobial activity against MexB overexpressing Pseudomonas aeruginosa isolate PA707 harboring gyrA T83I and parC S87L mutant gene by Etest method
Pseudomonas aeruginosa [13] = assay: Antimicrobial activity against Pseudomonas aeruginosa isolate PA5441 harboring gyrA T83I and parC S87L mutant gene by Etest method
Pseudomonas aeruginosa [14] = assay: Antimicrobial activity against MexB overexpressing Pseudomonas aeruginosa isolate PA6218 harboring gyrA D87N mutant gene by Etest method
Pseudomonas aeruginosa [15] = assay: Antimicrobial activity against Pseudomonas aeruginosa isolate PA5513 harboring gyrA T83I and parC S87L mutant gene by Etest method
Pseudomonas aeruginosa [16] = assay: Antimicrobial activity against Pseudomonas aeruginosa isolate PA9019 harboring gyrA D87G and parC S87L mutant gene by Etest method
Pseudomonas aeruginosa [17] = assay: Antimicrobial activity against MexB overexpressing Pseudomonas aeruginosa isolate PA1378 harboring gyrA T83I mutant gene by Etest method
Pseudomonas aeruginosa [18] = assay: Antimicrobial activity against Pseudomonas aeruginosa isolate PA5600 harboring gyrA T83I and parC S87L mutant gene by Etest method
Pseudomonas aeruginosa [19] = assay: Antimicrobial activity against MexB overexpressing Pseudomonas aeruginosa isolate PA8108 harboring gyrA T83I mutant gene by Etest method

Compound	MIC50 (Pseudomonas aeruginosa [1]) [µg/mL]	MIC50 (Pseudomonas aeruginosa [2]) [µg/mL]	MIC50 (Pseudomonas aeruginosa [3]) [µg/mL]	MIC50 (Pseudomonas aeruginosa [4]) [µg/mL]	MIC50 (Pseudomonas aeruginosa [5]) [µg/mL]	MIC50 (Pseudomonas aeruginosa [6]) [µg/mL]	MIC50 (Pseudomonas aeruginosa [7]) [µg/mL]	MIC50 (Pseudomonas aeruginosa [8]) [µg/mL]	MIC50 (Pseudomonas aeruginosa [9]) [µg/mL]	MIC50 (Pseudomonas aeruginosa [10]) [µg/mL]	MIC50 (Pseudomonas aeruginosa [11]) [µg/mL]	MIC50 (Pseudomonas aeruginosa [12]) [µg/mL]	MIC50 (Pseudomonas aeruginosa [13]) [µg/mL]	MIC50 (Pseudomonas aeruginosa [14]) [µg/mL]	MIC50 (Pseudomonas aeruginosa [15]) [µg/mL]	MIC50 (Pseudomonas aeruginosa [16]) [µg/mL]	MIC50 (Pseudomonas aeruginosa [17]) [µg/mL]	MIC50 (Pseudomonas aeruginosa [18]) [µg/mL]	MIC50 (Pseudomonas aeruginosa [19]) [µg/mL]	also measured
COLISTIN	1.5	1.5	2	1.5	1.5	1.5	1	2	1.5	0.38	1.5	1	1.5	3	1	1.5	2	1	0.25	
C[C@@H](O)[C@H]1C(=O)N2C(C(=O)O)=C(S[C@@H]3CN[C@H](CNS(N)(=O)=O)C3)[C@H](C)[C@H]12 [DORIPENEM]	12 (≈ 28.5 µM)	8 (≈ 19 µM)	8 (≈ 19 µM)	16 (≈ 38 µM)	3 (≈ 7.13 µM)	0.19 (≈ 0.452 µM)	24 (≈ 57.1 µM)	12 (≈ 28.5 µM)		6 (≈ 14.3 µM)			4 (≈ 9.51 µM)					4 (≈ 9.51 µM)		MIC90 (Pseudomonas aeruginosa [9]): 32 µg/mL (≈ 76.1 µM); MIC90 (Pseudomonas aeruginosa [11]): > 32 µg/mL; MIC90 (Pseudomonas aeruginosa [12]): > 32 µg/mL; MIC90 (Pseudomonas aeruginosa [14]): > 32 µg/mL; MIC90 (Pseudomonas aeruginosa [15]): > 32 µg/mL; MIC90 (Pseudomonas aeruginosa [16]): > 32 µg/mL; MIC90 (Pseudomonas aeruginosa [17]): > 32 µg/mL; MIC90 (Pseudomonas aeruginosa [19]): > 32 µg/mL
POLYMYXIN B	1.5		1	1.5	1.5	1.5	0.75		1.5	0.5	1	0.75	1.5	1.5	1	1	1.5	1.5	0.25	
